Test results published in patent US11209440B2, “T cell balance gene expression, compositions of matters and methods of use thereof” (THE BROAD INSTITUTE, INC., priority 2014, dated 2021).
Entries after “also recorded” stand apart in the source; their conditions may differ. One block for each molecule: values may come before it.

Assays:
[1] = target: T1, Rorγt (Mus musculus, UniProt P51450); assay: Dual luciferase reporter assay in EL4 cells stably transfected with Rorγt vector; assay type: cell-based; parameters: expressed in transfected cells; host or cells: EL4 cells, stably transfected; conditions: EL4 cells with Rorγt and CD5L vector; 5, 0.5, 0.05 μM titration
T1 sequence (P51450 1-495 isoform P51450-2): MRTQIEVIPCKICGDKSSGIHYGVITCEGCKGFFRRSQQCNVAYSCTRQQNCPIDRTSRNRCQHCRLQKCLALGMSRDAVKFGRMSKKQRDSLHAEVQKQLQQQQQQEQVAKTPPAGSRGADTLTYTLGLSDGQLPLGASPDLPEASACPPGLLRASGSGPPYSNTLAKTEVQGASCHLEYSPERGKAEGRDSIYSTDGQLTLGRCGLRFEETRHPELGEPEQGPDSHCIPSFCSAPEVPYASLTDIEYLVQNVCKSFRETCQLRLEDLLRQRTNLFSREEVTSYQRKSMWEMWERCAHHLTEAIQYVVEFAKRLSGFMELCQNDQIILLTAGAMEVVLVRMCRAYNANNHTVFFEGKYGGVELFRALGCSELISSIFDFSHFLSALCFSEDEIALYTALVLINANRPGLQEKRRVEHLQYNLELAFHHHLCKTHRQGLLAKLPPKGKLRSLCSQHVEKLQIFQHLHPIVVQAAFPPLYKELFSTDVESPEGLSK
Experimental: Lipidome analysis of Th17 cells. (A) WT and CD5L^−/− naïve T cells were differentiated as in FIG. 46B in the presence of cytokines as indicated. Cells and supernatant were harvested at 96 hours and subjected to MS/LC. Three independent mouse experiments were performed. […] (B) Expression of representative metabolites including a cholesterol ester and a PUFA-containing TAG species. FIG. 48 C, D, E, F-J show as follows: (C) Metabolomic analysis of independent mouse experiments where T cells were differentiated under various cytokine conditions as indicated and harvested at 48 h and 96 h. (D,E) Rorγt ChIP from Th17 cells differentiated as described in A. under various conditions as indicated. F-K. Dual luciferase reporter assay was performed in EL4 cells stably transfected with a control vector or Rorγt vector. (F, G) CD5L retroviral vector was cotransfected in F and G at 0, 25, 50 and 100 ng/well. […] All ChIP and luciferase assay are representative of at least 3 independent experiments.

[2] = system: Th17 cells; assay: FACS of IL-17 and IL-23R.GFP in Th17 cells treated with free fatty acids; assay type: cell-based, mouse; conditions: 10 uM arachidonic acid or 20 uM palmitic acid, 48 h, FACS
Experimental: (§1) (A) Naïve T cells were sorted from either WT or IL-23RGFP reporter mice, activated with plate-bound anti-CD3/anti-CD28 and differentiated with TGFβ1+IL-6 for 48 hours. […] (B) Cells from WT and Rorc^−/− mice were sorted, differentiated and treated with FFA as in A. Cells were harvested for RNA purification and qPCR. (C) Naïve WT and CD5L^−/− T cells were differentiated as in A. Cells were then lifted, washed and replated in fresh media with no addition of cytokines and in the presence of control or 5 uM of arachidonic acid (PUFA). Cytokine profile of T cells were measured after PMA/ionomycin restimulation. […] Another 48 hours later, cells were harvested for nanostring analysis (D) or qPCR (E).

[3] = system: Th17 cells; assay: qPCR and Nanostring signature analysis of Th17 cells treated with free fatty acids; assay type: cell-based, mouse
Experimental: as §1
Next, the contribution of lipid saturation to Th17 cell pathogenicity was studied.

[4] = target: T2, PROCR (Mus musculus, UniProt Q64695); assay: Intracellular IFN-γ/IL-17 staining and IL-17 ELISA of Th17 cells differentiated with activated protein C; assay type: cell-based; conditions: aPC 300 nM; flow cytometry day 3, ELISA day 3 and 5
T2 construct: endogenous in cells; host or cells: primary naïve CD4+ T cells polarised to Th17 (TGF-β1 + IL-6)
T2 sequence (Q64695 18-242): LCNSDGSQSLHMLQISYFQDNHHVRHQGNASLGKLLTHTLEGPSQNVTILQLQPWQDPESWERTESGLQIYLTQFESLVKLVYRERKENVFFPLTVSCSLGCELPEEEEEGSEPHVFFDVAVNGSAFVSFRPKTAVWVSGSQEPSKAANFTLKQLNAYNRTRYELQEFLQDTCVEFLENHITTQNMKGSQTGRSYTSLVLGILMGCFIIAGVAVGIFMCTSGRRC
Experimental: FIG. 20A depicts how naïve CD4+ T cells were differentiated into Th17 cells by anti-CD3/anti-CD28 stimulation in the presence of activated protein C (aPC, 300 nM), the ligand of PROCR. On day 3, cells were stimulated with PMA and Ionomycin for 4 hr, stained intracellularly for IFN-γ and IL-17 and analyzed by flow cytometry. FIG. 20B depicts IL-17 production from Th17 cells (TGF-β+IL-6) differentiated with or without activated protein C (aPC and Ctl, respectively) was assessed by ELISA on Day 3 and 5. FIG. 20C depicts how naïve CD4+ T cells were polarized under Th17 conditions (TGF-β+IL-6), transduced with either GFP control retrovirus (Ctl RV) or PROCR-expressing retrovirus (PROCR RV). Intracellular expression of IFN-γ and IL-17 in GFP+ cells were assessed by flow cytometry. FIG. 20D depicts how naïve CD4+ T cells from EPCR δ/δ mice and control mice were polarized under Th17 conditions with TGF-β1 and IL-6. Intracellular expression of IFN-γ and IL-17 were assessed by flow cytometry.

[5] = system: EAE; assay: EAE (experimental autoimmune encephalomyelitis) clinical scoring; assay type: in vivo, mouse; conditions: schematic of PROCR regulation (FIG. 26D)
Description: FIGS. 26A-26D are a series of graphs and illustrations depicting that PROCR deficiency exacerbates EAE severity. FIG. 26A depicts frequency of CD4+ T cells expressing IL-17 and PROCR isolated from EAE mice 21d after immunization with MOG35-55. FIG. 26B depicts how EAE was induced by adoptive transfer of MOG35-55-specific 2D2 cells transduced with a control retrovirus (Ctl_GFP) or a PROCR-expression retrovirus (PROCR_RV) and differentiated into Th17 cells. Mean clinical scores and summaries for each group are shown. Results are representative of one of two experiments. FIG. 26C depicts how Rag1−/− mice were reconstituted with either PROCR-deficient (EPCR δ/δ→Rag1−/−) or WT T cells (WT→Rag1−/−) and immunized with MOG35-55 to induce EAE. The mean clinical score of each group is shown. Results are representative of one of two experiments. FIG. 26D depicts a schematic representation of PROCR regulation. Rorγt, IRF4, and STAT3 induce PROCR expression.
CyTOF and flow cytometry: Active induction of EAE and disease analysis: For active induction of EAE, mice were immunized by subcutaneous injection of 100 μg MOG (35-55) ([…]) (SEQ ID NO: 1395) in CFA, then received 200 ng pertussis toxin intraperitoneally (List Biological Laboratory) on days 0 and 2. […]

[6] = target: T2, PROCR; assay: qRT-PCR of pathogenic/non-pathogenic signature genes in Th17 cells differentiated in the presence of activated protein C; assay type: cell-based
Description: FIG. 23A depicts quantitative RT-PCR analysis of mRNA expression of several pathogenic signature genes in Th17 cells differentiated with TGFβ1 and IL-6 in the presence of activated protein C (aPC) for 3 days in vitro. FIG. 23B depicts quantitative RT-PCR analysis of mRNA expression of several pathogenic signature genes in naïve CD4^+ T cells polarized under Th17 conditions, transduced with either GFP control retrovirus (Control RV) or PROCR-expressing retrovirus (PROCR RV) for 3 days. FIG. 23C depicts quantitative RT-PCR analysis of mRNA expression of several pathogenic signature genes in Th17 cells from EPCR δ/δ mice and control mice differentiated with TGFβ1 and IL-6 for 3 days in vitro.
FIGS. 32A-32D are a series of graphs depicting how PROCR and PD-1 expression affects Th17 pathogenicity. FIG. 32A depicts signature genes of pathogenic and non-pathogenic Th17 cells. Naïve CD4+ T cells were differentiated into non-pathogenic (TGFβ1+IL-6) or pathogenic (TGFβ3+IL-6 or IL-β1+IL-6) Th17 cells and PROCR expression was determined by quantitative PCR. FIG. 32B depicts how naïve WT or PROCRd/d CD4+ T cells were stimulated under Th17 polarizing conditions (TGFβ1+IL-6) in the presence or absence of aPC. Quantitative expression of three pathogenic signature genes was determined on day 3. […] Mice were monitored for EAE. […] Mice were monitored for EAE.

Molecule: CC(CO)CCC[C@@H](C)[C@H]1CC[C@H]2[C@@H]3C(O)C=C4C[C@@H](O)CC[C@]4(C)[C@H]3CC[C@]12C (stereo partly shown) [7, 27 dihydroxycholesterol, 7, 27-dihydroxycholesterol]
Il17 reporter transcription under CD5L-driven suppression [1]: rescued the CD5L-driven suppression

Molecule: CCCCCCCCCCCCCCCC(=O)O [SFA, palmitic acid]
percentage of IL-23R.GFP+ CD4 T cells ([2]; IL-23RGFP reporter Th17 (TGFβ1+IL-6) expanded with IL-23): increased the expression of both IL-17 and IL-23R expression, but this effect was not significant | percentage of IL-17+ CD4 T cells ([2]; WT Th17 (TGFβ1+IL-6) expanded with IL-23): increased the expression of both IL-17 and IL-23R expression, but this effect was not significant | 316 gene signature of Th17 cell differentiation and function ([3]; WT Th17 cells (TGFβ1+IL-6), 25 uM palmitic acid, Nanostring nCounter): more similar to CD5L^−/− Th17 cells | Il22 expression ([3]; qPCR): increased | expression of key pathogenicity signature genes Il10, Il23r, Ccl5, Csf2 and Lag3 ([3]; qPCR): reciprocally regulated

cytokine production (IFN-γ, IL-17) from Th17 cells [4]: not essential for cytokine production
B1: activated protein C: the ligand of PROCR (protein, UniProt P04070 200-461, looked up)
Vitamin K-dependent protein C …: DTEDQEDQVDPRLIDGKMTRRGDSPWQVVLLDSKKKLACGAVLIHPSWVLTAAHCMDESKKLLVRLGEYDLRRWEKWELDLDIKEVFVHPNYSKSTTDNDIALLHLAQPATLSQTIVPICLPDSGLAERELNQAGQETLVTGWGYHSSREKEAKRNRTFVLNFIKIPVVPHNECSEVMSNMVSENMLCAGILGDRQDACEGDSGGPMVASFHGTWFLVGLVSWGEGCGLLHNYGVYTKVSRYLDWIHGHIRDKEAPQKSWAP
modifications: Vitamin K-dependent protein C heavy chain activated two-chain form
notes: the ligand of PROCR
pathogenicity in EAE [5]: reduced pathogenicity | mRNA expression of pathogenic signature genes in Th17 cells ([6]; Th17 cells differentiated with TGFβ1 and IL-6 in the presence of aPC for 3 days, quantitative RT-PCR): impairs some pathogenic signature genes; also recorded: downregulation of the pathogenic signature genes IL-3, CXCL3, CCL4 and Pdp; also recorded: decreased the expression of some of the genes | expression of non-pathogenic signature genes in Th17 cells ([6]; Th17 polarizing conditions (TGFβ1+IL-6) with aPC, day 3): induces some non-pathogenic signature genes
